Entries after “also recorded” stand apart in the source; their conditions may differ.
Legend:
P. aeruginosa PA14 = assay: Mouse burn and infection (BI) model, survival; format: in vivo, mice; details: for average survival after 5 days: IV tail vein 100 μl of 10 mM, four days prior to burn/infection, n=8-10, control 10% (FIG. 9); for final mice survival rate at 7 days post burn and infection: single IV injection at 6 hrs (100 μl 20 mM), control 10% (FIG. 24)
Procedure: Burn wound infection in mice can be established by subcutaneous or topical administration of the bacteria to the sites of the burn. […] Six-week old CD-1 male mice were used.
To induce infection, the mice were placed under general anesthesia via intraperitonial injection of 40 mg/kg Pentobarbital, the ventral surface was shaved, and a central skin fold elevated was simultaneously compressed from both sides for 5 seconds using two 2×2 cm metal blocks preheated to 95-100° C., to produce a non-lethal 5-8% full thickness burn with negligible focal necrosis of the underlying muscle or damage to underlying visceral organs. IP saline was administered for fluid resuscitation for ≧5% total body surface burns: avoiding vital structures, saline was injected into the left lower quadrant of the abdominal area of the anesthetized animal post-burn. This burn procedure was followed by mid-eschar inoculation of 100 μL of bacterial suspension containing ˜5×10^5 CFU. The animals were returned to their cages and provided mouse chow and water ad libitum. Animals typically recover from the anesthesia within 20 minutes post-administration. Criteria used to evaluate anesthesia recovery are state of alertness, mobility, and reaction to surrounding stimuli. Mice were monitored twice a day for symptoms and deaths, with increased monitoring every 6-8 hours during the period of greatest potential for infection and clinical disease.
The mouse full-thickness skin thermal injury infection model was used to test if 2AA restricts P, aeruginosa virulence. This model is predictable and reproducible; clinically relevant; and can lead to MODS and mortality. Briefly, a ˜15% total burn surface area (TBSA) thermal scalding injury is produced on the abdominal skin, leaving the underlying muscle intact, and the inoculum is delivered into the scald eschar. […]

P. aeruginosa = P. aeruginosa growth kinetics (spectrophotometric analysis at 600 nm); format: cell-based, Pseudomonas aeruginosa; details: for bacterial growth (PA14): FIG. 23B
From the text: P. aeruginosa strains include wild-type (PA14, see Rahme et al., Science 268:1899-1902, 1995); a PA14 mvfR mutant (Cao et al., Proc. Natl. Acad. Sci. USA 98:14613-14618, 2001); a pqsE deletion mutant, generated via pEX18Ap allelic replacement by using sucrose selection (Hoang et al., Gene 212:77-86, 1998), resulting in a 570-bp nonpolar deletion covering 65% of the sequence (Déziel et al. PNAS); and the pqsA (U479) TnphoA mutant obtained from the PA14 Transposon Insertion Mutant Database. Bacteria were grown in LB broth or on 1.5% Bacto-agar (Difco) LB plates. Freshly plated cells served as inoculum.
P. aeruginosa was grown in the presence of 2 mM of 2′-aminoacetophenone (2AA), 3′-aminoacetophenone (3AA), 4′-aminoacetophenone (4AA), or 2′-nitroacetophenone (2NA), or in the absence of any of these compounds (control). Bacterial growth was followed over 26 hours by spectrophotometric analysis at 600 nm.
Bacterial growth was also followed over 35 hours by spectrophotometric analysis at 600 nm.

[1] = tested on: 4-hydroxy-2-alkylquinoline (HAQ) production; format: cell-based, Pseudomonas aeruginosa
PqsA = target: T1, PqsA (Pseudomonas aeruginosa, UniProt Q9I4X3); assay: Anthranilic acid accumulation and AA competition in PA14 cultures; format: cell-based; details: for accumulation of anthranilic acid: PA14 culture with inhibitor vs control (FIG. 31)
T1 construct: endogenous in cells; host or cells: P. aeruginosa PA14 cultures
T1 sequence (Q9I4X3 whole entry): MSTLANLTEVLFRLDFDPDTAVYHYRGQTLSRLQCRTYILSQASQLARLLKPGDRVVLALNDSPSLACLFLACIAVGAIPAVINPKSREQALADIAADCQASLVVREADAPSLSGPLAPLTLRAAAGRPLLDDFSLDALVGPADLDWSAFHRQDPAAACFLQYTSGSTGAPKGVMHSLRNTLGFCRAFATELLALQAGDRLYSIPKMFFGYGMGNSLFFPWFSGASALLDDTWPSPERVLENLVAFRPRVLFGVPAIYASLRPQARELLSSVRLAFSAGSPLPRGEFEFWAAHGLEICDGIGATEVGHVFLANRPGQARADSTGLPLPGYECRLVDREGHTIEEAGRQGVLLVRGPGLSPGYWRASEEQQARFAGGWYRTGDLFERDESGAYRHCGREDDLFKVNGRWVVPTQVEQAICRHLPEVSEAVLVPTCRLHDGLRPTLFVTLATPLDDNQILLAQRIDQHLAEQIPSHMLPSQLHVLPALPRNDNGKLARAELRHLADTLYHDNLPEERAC
From the text: In P. aeruginosa anthranilic acid is also produced by the enzymatic systems PhnAB or TrpEG. […] This accumulation could be due to inhibition of PqsA or of any enzyme downstream in the HAQ biosynthesis. […] This reversal could only be explained by a competitive inhibition of an enzyme acting on AA. Because pqsA is the only enzyme of the pqsA-E operon to present similarities with enzymes involved in the activation of aromatic acid group, like the one found in anthranilic acid, we conclude that these inhibitors act on PqsA in a competitive manner with its substrate AA.

pyocyanin production = assay: Pyocyanin production; format: cell-based, Pseudomonas aeruginosa
[2] = tested on: pqsA-LacZ (MvfR-dependent pqs operon transcription); assay: pqsA-LacZ expression (β-galactosidase activity); format: cell-based, Pseudomonas aeruginosa; details: PA14 pqsH/pqsA double mutant, compound added at OD600 1.0 (FIG. 19)
Procedure: To assess the effect of this compound on bacteria, we analyzed the production of HAQs in the presence of 2AA using LC/MS. The bacteria were propagated in the presence of 3 mM 2AA, culture media was collected at different time points, and the HHQ, PQS and HQNO production was measured in the supernatant. […] Since 2AA addition to the P. aeruginosa culture inhibits the production of HHQ and PQS, we assessed the transcription from the pqs operon using a pqsA-LacZ fusion.
To further, understand the mechanism of inhibition of the pqs operon by 2AA, we carried out competition assays of PQS and HHQ with 2AA. The expression of pqsA-LacZ in pqsApqsH double mutants was assessed. Bacteria were grown to an OD600 of 1.0 and HHQ and PQS were added either alone or with 2AA. LacZ expression was assayed at different stages of the growth, using standard protocols.
To determine whether HHQ activates MvfR expression, we generated a PA14pqsH/pqsA double mutant that lacks all HAQ production, and assessed pqsA-lacZ activity in the absence and presence of HHQ and PQS.

MvfR = target: T2, MvfR (Pseudomonas aeruginosa, UniProt Q9I4X0); assay: MvfR binding to radiolabeled pqsA promoter DNA fragment (gel shift); details: 40 pM ligand, E. coli cell lysate containing MvfR (FIGS. 20A, 20B)
T2 construct: made in house; host or cells: E. coli (cell lysate, not purified)
T2 sequence (Q9I4X0 whole entry, the tested form may be a part): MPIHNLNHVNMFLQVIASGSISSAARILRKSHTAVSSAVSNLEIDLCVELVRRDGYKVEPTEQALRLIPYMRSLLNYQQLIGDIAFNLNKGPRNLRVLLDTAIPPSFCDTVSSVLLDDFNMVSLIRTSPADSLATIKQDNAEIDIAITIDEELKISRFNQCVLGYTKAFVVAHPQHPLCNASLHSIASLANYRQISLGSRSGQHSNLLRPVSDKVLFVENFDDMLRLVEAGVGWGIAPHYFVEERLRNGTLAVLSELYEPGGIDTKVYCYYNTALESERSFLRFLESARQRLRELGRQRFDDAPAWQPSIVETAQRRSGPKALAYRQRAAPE
Procedure: FIGS. 20A and 20B show binding of MvfR to the pqsA promoter. FIG. 20A is a gel showing that MvfR binds to the pqsA promoter in the absence of HHQ or PQS, but that binding is increased in the presence of HHQ or PQS. A ^32P-labeled 174-bp DNA fragment containing the pqsA promoter region was mixed with E. coli cell lysate containing MvfR minus ligand (lanes 2-3); plus 40 pM HHQ (lanes 4-5); or plus 40 pM PQS (lanes 6-7). Protein added per reaction: lane 1, 0 ng/μl; lanes 2, 4, and 6, 30 ng/μl; and lanes 3, 5, and 7, 60 ng/μl. HHQ and PQS were added at the final concentration of 40 pM. Reaction mixtures were electrophoresed on 5% non-denatured polyacrylamide gels. FIG. 20B is a graph showing the densitometry of shifted bands.
To determine if HHQ potentiates MvfR DNA-binding, a 174-bp radiolabeled pqsA promoter region DNA fragment containing the potential LysR-box sequence was mixed with E. coli cell lysate containing MvfR.

[3] = 2 mM compound, followed over 26 hours at 600 nm (FIG. 4)

CC(=O)c1cccc(O)c1N [2-amino-3 hydroxy acetophenone]
protection (survival curves) (P. aeruginosa PA14; 10 mM solutions IV 4 days pre-BI (FIGS. 11A, 11B)): decreased protective efficacy versus 2AA

CC(=O)c1ccccc1[N+](=O)[O-] [2NA, 2′-nitroacetophenone]
Bacterial growth (P. aeruginosa; [3]): only slightly retarded
average survival after 5 days (P. aeruginosa PA14): 50%

CC(=O)c1cccc(N)c1 [3AA, 3′-aminoacetophenone]
Bacterial growth (P. aeruginosa; [3]): only slightly retarded
average survival after 5 days (P. aeruginosa PA14): 50%

Nc1cc(Cl)ccc1C(=O)O [4-CABA, 4-chloro-2-aminobenzoic acid]
Bacterial growth (P. aeruginosa; 1.5 mM compound, followed over 35 hours at 600 nm (FIG. 6)): only slightly retarded
bacterial growth (PA14) (P. aeruginosa): without affecting bacterial growth
HAQ production / HAQs synthesis [1]: completely halted
inhibition of 4-hydroxy-2-alkylquinoline (HAQ) production [1]: potent inhibitors
production of the principal members of the three main HAQ families (HHQ, HQNO, PQS) [1]: dramatically decreased
final mice survival rate at 7 days post burn and infection (P. aeruginosa PA14): ~50%
accumulation of anthranilic acid (PqsA): transient accumulation
pyocyanin production (pyocyanin production): without abrogating pyocyanin production

Nc1cc(F)ccc1C(=O)O [4-FABA, 4-fluoro-2-aminobenzoic acid]
inhibition of 4-hydroxy-2-alkylquinoline (HAQ) production [1]: potent inhibitors

CC(=O)c1ccc(N)cc1 [4AA, 4′-aminoacetophenone]
Bacterial growth (P. aeruginosa; [3]): only slightly retarded
average survival after 5 days (P. aeruginosa PA14): 50%

Nc1ccc(F)cc1C(=O)O [5-FABA, 5-fluoro-2-aminobenzoic acid]
HAQ production / HAQs synthesis [1]: inhibited HAQ production
inhibition of 4-hydroxy-2-alkylquinoline (HAQ) production [1]: potent inhibitors

Nc1cccc(Cl)c1C(=O)O [6-CABA, 6-chloro-2-aminobenzoic acid]
bacterial growth (PA14) (P. aeruginosa): without affecting bacterial growth; also recorded: does not inhibit PA14 growth
HAQ production / HAQs synthesis [1]: inhibited HAQ production; also recorded: completely halted
inhibition of 4-hydroxy-2-alkylquinoline (HAQ) production [1]: potent inhibitors
production of the principal members of the three main HAQ families (HHQ, HQNO, PQS) [1]: dramatically decreased
final mice survival rate at 7 days post burn and infection (P. aeruginosa PA14): ~40%
accumulation of anthranilic acid (PqsA): transient accumulation
effect of increasing concentrations of AA on inhibition of HAQ production (PqsA; culture containing 1.5 mM inhibitor (FIG. 32)): reversed the inhibition
pyocyanin production (pyocyanin production): without abrogating pyocyanin production

CCCCCCCc1cc(O)c2ccccc2n1 [HHQ, 4-hydroxy-2-heptylquinoline, reference compound]
MvfR-dependent pqsA-lacZ activity [2]: induce MvfR-dependent pqsA-lacZ activity
MvfR-pqsA promoter binding (MvfR): potentiate MvfR-pqsA promoter binding, with weaker activity seen with HHQ versus PQS

COC(=O)c1ccccc1N [MA, methyl anthranilate, reference compound]
PA14 growth (P. aeruginosa; methylanthranilate (FIG. 25B)): inhibits PA14 growth
PQS production [1]: prevents PQS production
levels of HAQs [1]: reduces the levels of several HAQs
production of N-oxides [1]: production of N-oxides at very high concentrations

CCCCCCCc1nc2ccccc2c(O)c1O [PQS, 3,4-dihydroxy-2-heptylquinoline, reference compound]
MvfR-dependent pqsA-lacZ activity [2]: induce MvfR-dependent pqsA-lacZ activity
MvfR-pqsA promoter binding (MvfR): potentiate MvfR-pqsA promoter binding

Source: patent publication US20130209515A1, “ANTI-INFECTIVE AND IMMUNOMODULATORY COMPOUNDS” (priority 2005, published 2013)
